Results published in US7517658B2, “Methods for preparing compositions using a SNORF33 receptor” (H. Lundbeck A/S, priority 1999, dated 2009).

Experiments:
cloned 5-HT receptors = conditions: read-out: Ki values at several cloned 5-HT receptors; cited from earlier work
rat SNORF33 = molecular target: T1, rat SNORF33 (Rattus norvegicus, UniProt Q923Y9); assay: cAMP response in stable rat SNORF33/HEK293 cells; type: cell-based; conditions: data not shown
T1 construct: expressed in transfected cells
Description: The receptor-mediated stimulation or inhibition of cyclic AMP (cAMP) formation may be assayed in cells expressing the mammalian receptors. Cells are plated in 96-well plates or other vessels and preincubated in a buffer such as HEPES buffered saline (NaCl (150 mM), CaCl2 (1 mM), KCl (5 mM), glucose (10 mM)) supplemented with a phosphodiesterase inhibitor such as 5 mM theophylline, with or without protease inhibitor cocktail (For example, a typical inhibitor cocktail contains 2 μg/ml aprotinin, […] leupeptin, and 10 μg/ml phosphoramidon.) for 20 min at 37° C., in 5% CO2. Test compounds are added with or without […] forskolin and incubated for an additional 10 min at 37° C. The medium is then aspirated and the reaction stopped by the addition of 100 mM HCl or other methods. The plates are stored at 4° C. for 15 min, and the cAMP content in the stopping solution is measured by radioimmunoassay. Radioactivity may be quantified using a gamma counter equipped with data reduction software. Specific modifications may be performed to optimize the assay for the receptor or to alter the detection method of cAMP.

hSNORF33 = molecular target: T2, hSNORF33 (Homo sapiens, UniProt Q96RJ0); assay: Electrophysiological response of Xenopus oocytes expressing hSNORF33 and CFTR; type: cell-based; parameters: expressed in transfected cells; host or cells: Xenopus laevis oocytes (mRNA injection, co-expressed CFTR); conditions: 100 μM tyramine; dependent on CFTR co-expression
T2 sequence (Q96RJ0 1-339): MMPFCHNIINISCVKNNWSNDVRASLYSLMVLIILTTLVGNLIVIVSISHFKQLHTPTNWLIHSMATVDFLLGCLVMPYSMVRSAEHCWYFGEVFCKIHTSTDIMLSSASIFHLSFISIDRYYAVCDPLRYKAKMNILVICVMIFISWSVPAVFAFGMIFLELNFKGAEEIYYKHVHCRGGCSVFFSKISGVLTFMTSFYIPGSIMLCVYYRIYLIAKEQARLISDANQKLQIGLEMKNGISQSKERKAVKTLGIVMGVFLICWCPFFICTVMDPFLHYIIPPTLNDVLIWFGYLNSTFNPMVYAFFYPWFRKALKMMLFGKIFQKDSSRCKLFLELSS
Description: Unless otherwise specified, oocytes were voltage clamped at a holding potential of −80 mV. During recordings, oocytes were bathed in continuously flowing (1-3 ml/min) medium containing 96 mM NaCl, 2 mM KCl, 1.8 mM CaCl2, 1 mM MgCl2, and 5 mM HEPES, pH 7.5 (ND96). […] Experiments were carried out at room temperature.

T1 sequence (Q923Y9 whole entry): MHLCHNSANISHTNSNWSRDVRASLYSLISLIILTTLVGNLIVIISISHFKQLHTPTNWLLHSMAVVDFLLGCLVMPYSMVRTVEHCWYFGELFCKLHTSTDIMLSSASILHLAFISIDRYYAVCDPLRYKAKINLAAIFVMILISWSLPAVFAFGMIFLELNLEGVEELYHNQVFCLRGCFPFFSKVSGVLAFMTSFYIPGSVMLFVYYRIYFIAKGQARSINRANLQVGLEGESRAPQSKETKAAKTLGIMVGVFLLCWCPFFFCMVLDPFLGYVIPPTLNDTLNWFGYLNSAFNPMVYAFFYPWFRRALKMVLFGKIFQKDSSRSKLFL

Compound	Ki (cloned 5-HT receptors)	Increase in cAMP (rat SNORF33)	Stimulation of hSNORF33 currents (hSNORF33)
NCCc1c[nH]c2ccccc12 [Tryptamine (T), Tryptamine]	1 to 100 nM	–	–
NCCc1ccc(O)cc1 [Tyramine (TYR), Tyramine]	–	~4 fold	strongly stimulated
